From patent US20260265227A1, “AMIDE PRODRUGS AND USES THEREOF” (Autobahn Therapeutics, Inc., priority 2022, published 2026)

Biological target: T1, recombinant human FAAH (rhFAAH) (Homo sapiens, UniProt O00519)
T1 construct: purchased Cayman Chemical (Ann Arbor, MI, USA)
T1 sequence (O00519 1-579): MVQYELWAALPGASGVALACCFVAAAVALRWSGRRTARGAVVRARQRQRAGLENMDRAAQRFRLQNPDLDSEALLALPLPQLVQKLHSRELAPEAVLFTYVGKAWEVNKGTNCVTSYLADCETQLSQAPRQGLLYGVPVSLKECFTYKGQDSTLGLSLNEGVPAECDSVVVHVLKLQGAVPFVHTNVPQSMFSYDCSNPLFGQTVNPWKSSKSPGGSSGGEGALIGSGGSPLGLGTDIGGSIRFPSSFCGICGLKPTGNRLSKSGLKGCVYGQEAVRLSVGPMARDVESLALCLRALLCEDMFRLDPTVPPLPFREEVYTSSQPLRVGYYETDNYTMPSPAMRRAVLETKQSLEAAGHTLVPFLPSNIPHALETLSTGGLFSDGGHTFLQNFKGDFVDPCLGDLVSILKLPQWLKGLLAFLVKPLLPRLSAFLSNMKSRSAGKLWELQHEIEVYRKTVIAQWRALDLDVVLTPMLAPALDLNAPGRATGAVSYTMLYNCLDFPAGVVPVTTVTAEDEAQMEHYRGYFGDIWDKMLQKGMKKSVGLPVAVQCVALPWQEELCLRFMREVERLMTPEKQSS
Experiment: FAAH Substrate Evaluation (formation of acid metabolite from amide prodrug)
Assay type: biochemical
Settings: 0.5 ng/μL rhFAAH, 1 μM test compound, Tris-EDTA buffer pH 8.0, 0.1% BSA, room temperature, 0-60 minutes, LC-MS/MS
Description: Purified recombinant human FAAH (rhFAAH) was purchased from Cayman Chemical (Ann Arbor, MI, USA). The total volume for each incubation was 400 μL containing a final 0.5 ng/μL rhFAAH, 1 μM test compound, 1.25% ethanol or 1 μM PF-3845 (FAAH inhibitor), and 0.1% bovine serum albumin in Tris-EDTA buffer at pH 8.0). The positive control was LL-341001. The incubation was conducted at the room temperature. At 0, 5, 15, 30 and 60 minutes, an aliquot of 30 μL reaction mixtures was removed and mixed with 300 μL acetonitrile containing 5 ng/mL terfenadine and 10 ng/ml tolbutamide as internal standards to quench the reaction. The resulting mixture was centrifuged at 4000 rpm, 4° C. for 15 minutes, and 100 μL supernatant was ready for LC-MS/MS analysis to measure the formation of acid metabolite.
Acquity Ultra Performance LC system from Waters was used for sample analysis. The chromatography was performed on a reverse phase Kinetex 2.6 μm C18 column, 2.1×30 mm, 100 Å. The mobile phase A comprised of 0.1% formic acid in water and mobile phase B comprised of 0.1% formic acid in acetonitrile with a 2-min run time at the flow rate of 0.8 mL/min for the acid metabolite from positive control or a 1.5 min run time at the flow rate of 0.9 mL/min for the acid metabolite of test compounds. The mass spectrometer (API-5500 and API Q Trap 4000 Applied Biosystems/MDS SCIEX Instruments, Framingham, MA, USA) was operated under ESI positive or negative ion MRM mode.
The formation of acid metabolite was monitored and quantified using one calibration point of 1 μM. The observed rate constant (ke) for the acid metabolite formation was calculated by plotting the metabolite concentration versus time of incubation with the slope being ke and is shown in Table 1.

C[C@@H](CO)NC(=O)C1CN(CC2=Cc3ccc(OCCCC(F)(F)F)cc3C[C@@H]2C)C1 [Compound 2, N—((S)-1-hydroxypropan-2-yl)-1-(((S)-3-methyl-6-(4,4,4-trifluorobutoxy)-3,4-dihydronaphthalen-2-yl)methyl)azetidine-3-carboxamide]
ke (observed rate constant for the acid metabolite formation): B (ke is less than 1.0 and more than 0)

C[C@H]1Cc2cc(OCCCC(F)(F)F)ccc2C=C1CN1CC(C(=O)Nc2cncnc2)C1 [Compound 3, (S)-1-((3-methyl-6-(4,4,4-trifluorobutoxy)-3,4-dihydronaphthalen-2-yl)methyl)-N-(pyrimidin-5-yl)azetidine-3-carboxamide]
ke (observed rate constant for the acid metabolite formation): A (ke is more than or equal to 1.0)

C[C@H]1Cc2cc(OCCCC(F)(F)F)ccc2C=C1CN1CC(C(=O)Nc2ccnnc2)C1 [Compound 4, (S)-1-((3-methyl-6-(4,4,4-trifluorobutoxy)-3,4-dihydronaphthalen-2-yl)methyl)-N-(pyridazin-4-yl)azetidine-3-carboxamide]
ke (observed rate constant for the acid metabolite formation): A (ke is more than or equal to 1.0)

COCCNC(=O)C1CN(CC2=Cc3ccc(OCCCC(F)(F)F)cc3C[C@@H]2C)C1 [Compound 5, (S)—N-(2-methoxyethyl)-1-((3-methyl-6-(4,4,4-trifluorobutoxy)-3,4-dihydronaphthalen-2-yl)methyl)azetidine-3-carboxamide]
ke (observed rate constant for the acid metabolite formation): A (ke is more than or equal to 1.0)

C[C@H]1Cc2cc(OCCCC(F)(F)F)ccc2C=C1CN1CC(C(=O)NCC(C)(C)C)C1 [Compound 6, (S)-1-((3-methyl-6-(4,4,4-trifluorobutoxy)-3,4-dihydronaphthalen-2-yl)methyl)-N-neopentylazetidine-3-carboxamide]
ke (observed rate constant for the acid metabolite formation): B (ke is less than 1.0 and more than 0)

CC(C)CNC(=O)C1CN(CC2=Cc3ccc(OCCCC(F)(F)F)cc3C[C@@H]2C)C1 [Compound 7, (S)—N-isobutyl-1-((3-methyl-6-(4,4,4-trifluorobutoxy)-3,4-dihydronaphthalen-2-yl)methyl)azetidine-3-carboxamide]
ke (observed rate constant for the acid metabolite formation): A (ke is more than or equal to 1.0)

CC[C@@H](C)NC(=O)C1CN(CC2=Cc3ccc(OCCCC(F)(F)F)cc3C[C@@H]2C)C1 [Compound 8, N—((R)-sec-butyl)-1-(((S)-3-methyl-6-(4,4,4-trifluorobutoxy)-3,4-dihydronaphthalen-2-yl)methyl)azetidine-3-carboxamide]
ke (observed rate constant for the acid metabolite formation): A (ke is more than or equal to 1.0)

C[C@H]1Cc2cc(OCCCC(F)(F)F)ccc2C=C1CN1CC(C(=O)N(C)CC(C)(C)C)C1 [Compound 9, (S)—N-methyl-1-((3-methyl-6-(4,4,4-trifluorobutoxy)-3,4-dihydronaphthalen-2-yl)methyl)-N-neopentylazetidine-3-carboxamide]
ke (observed rate constant for the acid metabolite formation): C (ke is 0)

CCCNC(=O)C1CN(CC2=Cc3ccc(OCCCC(F)(F)F)cc3C[C@@H]2C)C1 [Compound 10, (S)-1-((3-methyl-6-(4,4,4-trifluorobutoxy)-3,4-dihydronaphthalen-2-yl)methyl)-N-propylazetidine-3-carboxamide]
ke (observed rate constant for the acid metabolite formation): A (ke is more than or equal to 1.0)

C[C@H]1Cc2cc(OCCCC(F)(F)F)ccc2C=C1CN1CC(C(=O)N(C)C)C1 [Compound 11, (S)—N,N-dimethyl-1-((3-methyl-6-(4,4,4-trifluorobutoxy)-3,4-dihydronaphthalen-2-yl)methyl)azetidine-3-carboxamide]
ke (observed rate constant for the acid metabolite formation): B (ke is less than 1.0 and more than 0)

CNC(=O)C1CN(CC2=Cc3ccc(OCCCC(F)(F)F)cc3C[C@@H]2C)C1 [Compound 12, (S)—N-methyl-1-((3-methyl-6-(4,4,4-trifluorobutoxy)-3,4-dihydronaphthalen-2-yl)methyl)azetidine-3-carboxamide]
ke (observed rate constant for the acid metabolite formation): B (ke is less than 1.0 and more than 0)

C[C@H]1Cc2cc(OCCCC(F)(F)F)ccc2C=C1CN1CC(C(=O)Nc2cccnc2)C1 [Compound 13, (S)-1-((3-methyl-6-(4,4,4-trifluorobutoxy)-3,4-dihydronaphthalen-2-yl)methyl)-N-(pyridin-3-yl)azetidine-3-carboxamide]
ke (observed rate constant for the acid metabolite formation): A (ke is more than or equal to 1.0)

C[C@H](CO)NC(=O)C1CN(CC2=Cc3ccc(OCCCC(F)(F)F)cc3C[C@@H]2C)C1 [Compound 14, N—((R)-1-hydroxypropan-2-yl)-1-(((S)-3-methyl-6-(4,4,4-trifluorobutoxy)-3,4-dihydronaphthalen-2-yl)methyl)azetidine-3-carboxamide]
ke (observed rate constant for the acid metabolite formation): B (ke is less than 1.0 and more than 0)

C[C@H](O)CNC(=O)C1CN(CC2=Cc3ccc(OCCCC(F)(F)F)cc3C[C@@H]2C)C1 [Compound 15, N—((S)-2-hydroxypropyl)-1-(((S)-3-methyl-6-(4,4,4-trifluorobutoxy)-3,4-dihydronaphthalen-2-yl)methyl)azetidine-3-carboxamide]
ke (observed rate constant for the acid metabolite formation): B (ke is less than 1.0 and more than 0)

CCCN(C)C(=O)C1CN(CC2=Cc3ccc(OCCCC(F)(F)F)cc3C[C@@H]2C)C1 [Compound 16, (S)—N-methyl-1-((3-methyl-6-(4,4,4-trifluorobutoxy)-3,4-dihydronaphthalen-2-yl)methyl)-N-propylazetidine-3-carboxamide]
ke (observed rate constant for the acid metabolite formation): C (ke is 0)

CC[C@H](C)NC(=O)C1CN(CC2=Cc3ccc(OCCCC(F)(F)F)cc3C[C@@H]2C)C1 [Compound 17, N—((S)-sec-butyl)-1-(((S)-3-methyl-6-(4,4,4-trifluorobutoxy)-3,4-dihydronaphthalen-2-yl)methyl)azetidine-3-carboxamide]
ke (observed rate constant for the acid metabolite formation): B (ke is less than 1.0 and more than 0)

COC[C@H](C)NC(=O)C1CN(CC2=Cc3ccc(OCCCC(F)(F)F)cc3C[C@@H]2C)C1 [Compound 18, N—((S)-1-methoxypropan-2-yl)-1-(((S)-3-methyl-6-(4,4,4-trifluorobutoxy)-3,4-dihydronaphthalen-2-yl)methyl)azetidine-3-carboxamide]
ke (observed rate constant for the acid metabolite formation): B (ke is less than 1.0 and more than 0)

C[C@H]1Cc2cc(OCCCC(F)(F)F)ccc2C=C1CN1CC(C(=O)NCC2CC2)C1 [Compound 19, (S)—N-(cyclopropylmethyl)-1-((3-methyl-6-(4,4,4-trifluorobutoxy)-3,4-dihydronaphthalen-2-yl)methyl)azetidine-3-carboxamide]
ke (observed rate constant for the acid metabolite formation): A (ke is more than or equal to 1.0)

C[C@H]1Cc2cc(OCCCC(F)(F)F)ccc2C=C1CN1CC(C(=O)NC2CC2)C1 [Compound 20, (S)—N-cyclopropyl-1-((3-methyl-6-(4,4,4-trifluorobutoxy)-3,4-dihydronaphthalen-2-yl)methyl)azetidine-3-carboxamide]
ke (observed rate constant for the acid metabolite formation): A (ke is more than or equal to 1.0)

C[C@@H](O)CNC(=O)C1CN(CC2=Cc3ccc(OCCCC(F)(F)F)cc3C[C@@H]2C)C1 [Compound 21, N—((R)-2-hydroxypropyl)-1-(((S)-3-methyl-6-(4,4,4-trifluorobutoxy)-3,4-dihydronaphthalen-2-yl)methyl)azetidine-3-carboxamide]
ke (observed rate constant for the acid metabolite formation): B (ke is less than 1.0 and more than 0)

C[C@H]1Cc2cc(OCCCC(F)(F)F)ccc2C=C1CN1CC(C(=O)NCCCF)C1 [Compound 22, (S)-N-(3-fluoropropyl)-1-((3-methyl-6-(4,4,4-trifluorobutoxy)-3,4-dihydro-naphthalen-2-yl)methyl)azetidine-3-carboxamide]
ke (observed rate constant for the acid metabolite formation): B (ke is less than 1.0 and more than 0)
